Assay results as given in patent US11813245B2, “Sulcardine administration for treatment of acute atrial fibrillation” (HUYABIO International, LLC, priority 2020, dated 2023).
Where a name gives a salt, the structure may show the parent alone. Read-outs that look alike come from different tables or passages of the source.

Key:
ICa,L = ICa,L (Homo sapiens, UniProt Q13936); conditions: background statement; cited from earlier work
healthy subjects [1] = assay: Phase 1 single ascending dose trial of intravenous HBI-3000: continuous 12-lead Holter ECG, baseline and placebo subtracted (ΔΔ) ECG intervals at Cmax; format: in vivo, human
Experimental: (§1) HBI-3000 (sulcardine sulfate) was administered to human subjects according to the protocol provided in (Clinical Trials.gov Identifier: NCT03397641. That protocol is incorporated herein by reference in its entirety.
(§2) Objective: Provided herein are the safety, tolerability, pharmacokinetics and electrocardiogram (ECG) results of a Phase 1 single ascending dose trial of intravenous (IV) HBI-3000 in healthy subjects.
(§3) Methods: […] subjects were randomized to 6 cohorts of 8 subjects to receive 1 of 5 single ascending iv doses (Table 2) of HBI-3000 or placebo (6:2), with 2 cohorts receiving the 600 mg dose. Doses of HBI-3000 ranged from 20 mg (Cohort A), 60 mg (Cohort B), 180 mg (Cohort C), 360 mg (Cohort D), to 600 mg (Cohort E and F). Drug was a lyophilized powder, reconstituted to […] then diluted in saline for delivery via intravenous infusion as a 50 mL solution over 30 minutes.
Continuous 12-lead Holter ECG data were recorded at baseline and 11 time points thereafter. Mean baseline and placebo subtracted (ΔΔ) ECG intervals (QTcF, HR, PR, QRS, and P-wave duration [PDur]) and T-wave segments (J to T peak [JTp] and T peak to T end [TpTe]) were calculated at Cmax for each dose.
Table 2 summarizes ECG data at Cmax for each dose, as predicted by mixed-effects modeling. […] The increases in QRS and PDur are consistent with block of INa-Peak. The increase in the PR interval is consistent with the increase in PDur and with both INa-Peak and ICa,L inhibition. Prolongation of TpTe is consistent with IKr block, which would be expected, in isolation, to lengthen JTp as well. The observed dose-related reduction of JTp is likely due to counteraction of the effect of HBI-3000 on IKr through its inhibition of both INa-Late, and ICa,L.

INa-Peak = INa-Peak (Homo sapiens, UniProt Q14524); conditions: background statement; cited from earlier work
[2] = Phase 1 single ascending dose trial of intravenous HBI-3000: pharmacokinetics; format: in vivo; conditions: human, plasma
Experimental: as §1, §2, §3
In some instances, the patient is administered 350 mg of HBI-3000.

IKr = IKr (Homo sapiens, UniProt Q12809); conditions: background statement; cited from earlier work
IKr, sequence (Q12809 whole entry): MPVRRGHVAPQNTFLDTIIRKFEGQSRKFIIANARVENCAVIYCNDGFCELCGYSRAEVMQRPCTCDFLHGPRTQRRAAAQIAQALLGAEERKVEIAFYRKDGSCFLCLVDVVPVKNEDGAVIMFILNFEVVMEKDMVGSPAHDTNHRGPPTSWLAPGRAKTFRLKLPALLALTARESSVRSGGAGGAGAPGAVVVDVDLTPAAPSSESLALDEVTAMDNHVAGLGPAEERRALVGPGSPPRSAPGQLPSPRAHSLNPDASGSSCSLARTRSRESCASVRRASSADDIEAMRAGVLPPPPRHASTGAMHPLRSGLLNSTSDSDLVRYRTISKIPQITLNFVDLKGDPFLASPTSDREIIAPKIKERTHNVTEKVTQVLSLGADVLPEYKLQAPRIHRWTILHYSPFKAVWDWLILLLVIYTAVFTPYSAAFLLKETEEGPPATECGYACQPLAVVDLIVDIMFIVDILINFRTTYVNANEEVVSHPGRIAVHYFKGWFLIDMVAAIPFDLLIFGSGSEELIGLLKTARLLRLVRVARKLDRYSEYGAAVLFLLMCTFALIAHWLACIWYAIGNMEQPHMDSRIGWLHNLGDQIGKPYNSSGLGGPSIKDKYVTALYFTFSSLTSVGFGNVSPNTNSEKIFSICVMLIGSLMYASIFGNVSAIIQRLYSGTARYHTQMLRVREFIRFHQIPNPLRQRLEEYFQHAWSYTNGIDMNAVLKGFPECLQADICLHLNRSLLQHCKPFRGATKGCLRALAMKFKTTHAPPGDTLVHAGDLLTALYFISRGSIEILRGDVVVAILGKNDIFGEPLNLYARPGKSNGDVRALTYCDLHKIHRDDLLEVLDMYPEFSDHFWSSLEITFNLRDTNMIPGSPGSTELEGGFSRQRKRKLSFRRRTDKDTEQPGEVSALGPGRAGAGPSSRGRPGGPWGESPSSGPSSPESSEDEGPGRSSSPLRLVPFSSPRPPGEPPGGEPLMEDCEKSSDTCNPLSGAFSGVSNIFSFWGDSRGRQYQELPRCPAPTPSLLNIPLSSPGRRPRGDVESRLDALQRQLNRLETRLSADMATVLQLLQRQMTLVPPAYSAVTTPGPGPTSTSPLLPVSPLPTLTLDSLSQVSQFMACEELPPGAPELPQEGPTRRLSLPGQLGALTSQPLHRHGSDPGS

healthy subjects [3] = assay: Phase 1 single ascending dose trial of intravenous HBI-3000: safety and tolerability; format: in vivo, human; conditions: single ascending iv doses 20-600 mg
Experimental: as §1, §2, §3

INa-Late = INa-Late (Homo sapiens, UniProt Q14524); conditions: background statement; cited from earlier work
[4] = Chen et al.; cited from earlier work
[5] = 20 mg single iv infusion over 30 min, at Cmax 135 ng/ml, N=6, concentration-effect regression model
[6] = 60 mg single iv infusion over 30 min, at Cmax 378 ng/ml, N=6, concentration-effect regression model
[7] = 180 mg single iv infusion over 30 min, at Cmax 1530 ng/ml, N=6, concentration-effect regression model
[8] = 360 mg single iv infusion over 30 min, at Cmax 3120 ng/ml, N=5, concentration-effect regression model
[9] = 600 mg single iv infusion over 30 min, at Cmax 5280 ng/ml, N=12, concentration-effect regression model
[10] = concentration-effect regression model, iv doses 20-600 mg
[11] = 20 mg single iv infusion over 30 min, healthy subjects, N=6
[12] = 60 mg single iv infusion over 30 min, healthy subjects, N=6
[13] = 180 mg single iv infusion over 30 min, healthy subjects, N=6
[14] = 360 mg single iv infusion over 30 min, healthy subjects, N=5
[15] = 600 mg single iv infusion over 30 min, healthy subjects, N=12

ICa,L, sequence (Q13936 whole entry): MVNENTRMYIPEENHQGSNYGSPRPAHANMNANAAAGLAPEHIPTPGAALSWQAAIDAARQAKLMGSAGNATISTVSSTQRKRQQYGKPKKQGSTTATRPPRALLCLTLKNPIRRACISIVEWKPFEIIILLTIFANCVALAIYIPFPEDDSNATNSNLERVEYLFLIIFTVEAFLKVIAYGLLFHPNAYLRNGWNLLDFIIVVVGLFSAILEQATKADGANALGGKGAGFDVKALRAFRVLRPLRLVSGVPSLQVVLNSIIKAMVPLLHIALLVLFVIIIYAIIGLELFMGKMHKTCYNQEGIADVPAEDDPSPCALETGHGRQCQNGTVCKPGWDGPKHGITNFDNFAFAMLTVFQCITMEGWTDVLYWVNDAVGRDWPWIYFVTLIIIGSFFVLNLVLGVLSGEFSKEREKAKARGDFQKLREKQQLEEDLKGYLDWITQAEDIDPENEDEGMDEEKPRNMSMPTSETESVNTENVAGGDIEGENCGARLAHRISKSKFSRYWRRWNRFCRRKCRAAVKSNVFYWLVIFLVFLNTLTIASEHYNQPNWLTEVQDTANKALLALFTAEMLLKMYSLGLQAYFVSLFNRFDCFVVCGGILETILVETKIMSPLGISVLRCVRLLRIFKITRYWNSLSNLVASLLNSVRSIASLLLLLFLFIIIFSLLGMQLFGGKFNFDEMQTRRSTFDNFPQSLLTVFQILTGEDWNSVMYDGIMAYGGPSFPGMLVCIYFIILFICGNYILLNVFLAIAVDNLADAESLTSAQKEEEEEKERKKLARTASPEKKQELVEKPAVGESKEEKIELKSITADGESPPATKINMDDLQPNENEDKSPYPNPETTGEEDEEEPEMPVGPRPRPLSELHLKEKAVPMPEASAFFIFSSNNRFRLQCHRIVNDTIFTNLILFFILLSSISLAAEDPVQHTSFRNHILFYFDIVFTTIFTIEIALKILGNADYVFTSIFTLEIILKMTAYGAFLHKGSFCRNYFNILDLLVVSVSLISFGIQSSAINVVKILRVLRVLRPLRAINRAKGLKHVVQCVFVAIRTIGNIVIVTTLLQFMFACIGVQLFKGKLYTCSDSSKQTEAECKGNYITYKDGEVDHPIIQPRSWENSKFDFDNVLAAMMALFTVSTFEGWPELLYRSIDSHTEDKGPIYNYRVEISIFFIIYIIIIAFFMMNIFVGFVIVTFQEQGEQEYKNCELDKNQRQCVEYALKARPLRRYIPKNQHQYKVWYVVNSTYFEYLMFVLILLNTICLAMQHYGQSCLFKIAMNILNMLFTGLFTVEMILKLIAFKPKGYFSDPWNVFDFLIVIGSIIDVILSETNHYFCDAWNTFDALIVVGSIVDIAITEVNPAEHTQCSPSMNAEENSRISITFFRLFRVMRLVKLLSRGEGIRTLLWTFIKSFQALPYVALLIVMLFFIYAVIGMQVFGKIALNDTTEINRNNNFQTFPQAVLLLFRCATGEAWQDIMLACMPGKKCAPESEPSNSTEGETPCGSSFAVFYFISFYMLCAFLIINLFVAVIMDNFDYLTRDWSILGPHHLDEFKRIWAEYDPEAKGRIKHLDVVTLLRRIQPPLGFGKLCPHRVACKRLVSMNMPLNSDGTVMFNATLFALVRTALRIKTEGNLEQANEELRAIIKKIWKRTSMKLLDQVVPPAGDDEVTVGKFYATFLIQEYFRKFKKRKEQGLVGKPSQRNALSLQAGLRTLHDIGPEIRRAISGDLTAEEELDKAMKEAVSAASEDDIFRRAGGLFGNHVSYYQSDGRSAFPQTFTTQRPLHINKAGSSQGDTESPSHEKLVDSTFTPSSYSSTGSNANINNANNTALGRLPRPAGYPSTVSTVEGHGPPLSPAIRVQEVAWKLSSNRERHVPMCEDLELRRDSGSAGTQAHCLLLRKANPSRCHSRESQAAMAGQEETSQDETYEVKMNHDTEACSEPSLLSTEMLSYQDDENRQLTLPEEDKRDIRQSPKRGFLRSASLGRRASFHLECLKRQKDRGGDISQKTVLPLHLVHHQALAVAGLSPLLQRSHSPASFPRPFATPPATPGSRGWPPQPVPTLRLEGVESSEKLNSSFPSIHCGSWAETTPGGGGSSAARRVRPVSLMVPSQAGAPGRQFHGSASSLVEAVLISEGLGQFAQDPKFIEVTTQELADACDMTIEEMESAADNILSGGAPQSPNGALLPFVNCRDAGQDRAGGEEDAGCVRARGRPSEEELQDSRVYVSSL
ICa,L, sequence (Q08289 whole entry partner): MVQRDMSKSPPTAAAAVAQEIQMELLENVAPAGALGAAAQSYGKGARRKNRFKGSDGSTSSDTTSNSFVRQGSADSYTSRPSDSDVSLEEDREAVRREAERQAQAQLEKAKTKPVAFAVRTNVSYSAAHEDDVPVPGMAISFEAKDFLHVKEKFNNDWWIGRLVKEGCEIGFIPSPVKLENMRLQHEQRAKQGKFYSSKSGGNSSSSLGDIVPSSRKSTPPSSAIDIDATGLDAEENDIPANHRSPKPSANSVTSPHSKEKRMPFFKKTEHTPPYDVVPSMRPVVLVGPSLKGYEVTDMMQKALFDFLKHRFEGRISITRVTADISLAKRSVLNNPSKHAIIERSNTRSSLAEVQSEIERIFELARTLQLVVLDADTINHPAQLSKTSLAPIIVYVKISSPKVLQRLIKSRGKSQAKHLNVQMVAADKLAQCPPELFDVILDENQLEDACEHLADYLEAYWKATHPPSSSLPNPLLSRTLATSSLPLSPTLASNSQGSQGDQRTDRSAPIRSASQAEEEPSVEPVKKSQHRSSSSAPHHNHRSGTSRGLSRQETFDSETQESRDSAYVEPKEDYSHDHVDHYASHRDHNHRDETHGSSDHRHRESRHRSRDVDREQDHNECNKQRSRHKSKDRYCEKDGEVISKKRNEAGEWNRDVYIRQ
ICa,L, sequence (P54289 25-946 partner limits assumed): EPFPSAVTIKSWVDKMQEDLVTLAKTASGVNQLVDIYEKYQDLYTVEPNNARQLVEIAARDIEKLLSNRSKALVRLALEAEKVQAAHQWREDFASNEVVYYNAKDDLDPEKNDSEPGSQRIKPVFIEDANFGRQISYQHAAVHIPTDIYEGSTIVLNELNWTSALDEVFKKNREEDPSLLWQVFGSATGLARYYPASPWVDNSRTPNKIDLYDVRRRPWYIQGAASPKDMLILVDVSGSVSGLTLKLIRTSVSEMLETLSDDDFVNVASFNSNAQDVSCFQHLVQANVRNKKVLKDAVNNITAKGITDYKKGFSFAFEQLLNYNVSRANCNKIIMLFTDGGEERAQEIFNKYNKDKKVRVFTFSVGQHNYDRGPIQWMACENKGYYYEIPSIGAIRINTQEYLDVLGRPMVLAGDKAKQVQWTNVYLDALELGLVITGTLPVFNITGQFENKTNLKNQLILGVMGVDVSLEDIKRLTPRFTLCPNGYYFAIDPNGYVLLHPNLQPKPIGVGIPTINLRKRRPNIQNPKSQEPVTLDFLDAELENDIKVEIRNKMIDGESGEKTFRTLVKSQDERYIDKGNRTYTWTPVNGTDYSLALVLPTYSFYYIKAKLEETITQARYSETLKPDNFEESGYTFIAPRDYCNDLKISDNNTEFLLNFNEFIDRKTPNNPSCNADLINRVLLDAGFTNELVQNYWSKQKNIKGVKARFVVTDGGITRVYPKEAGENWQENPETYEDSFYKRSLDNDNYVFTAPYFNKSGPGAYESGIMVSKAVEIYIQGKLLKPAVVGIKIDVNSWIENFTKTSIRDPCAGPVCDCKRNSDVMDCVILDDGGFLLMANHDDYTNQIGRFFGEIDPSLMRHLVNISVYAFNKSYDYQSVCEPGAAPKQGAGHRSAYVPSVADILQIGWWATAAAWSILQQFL
ICa,L, sequence (P54289 947-1103 partner limits assumed): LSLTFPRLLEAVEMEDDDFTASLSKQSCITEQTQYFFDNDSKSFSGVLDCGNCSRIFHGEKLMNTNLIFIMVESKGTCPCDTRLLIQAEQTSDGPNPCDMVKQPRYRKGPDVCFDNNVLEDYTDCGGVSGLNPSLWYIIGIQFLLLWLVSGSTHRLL

COc1ccc(S(=O)(=O)NCc2cc(CN3CCCC3)c(O)c(CN3CCCC3)c2)cc1 [HBI-3000, sulcardine sulfate]
in vitro inhibitory effects on ICa,L (ICa,L): relatively balanced in vitro inhibitory effects | ΔΔHR (healthy subjects [1]; [5]): 1.74 bpm | ΔΔJTp (healthy subjects [1]; [5]): -2.87 ms | ΔΔPDur (healthy subjects [1]; [5]): 3.17 ms | ΔΔPR (healthy subjects [1]; [5]): 5.08 ms | ΔΔQRS (healthy subjects [1]; [5]): -0.08 ms | ΔΔQTcF (healthy subjects [1]; [5]): 1.40 ms | ΔΔTpTe (healthy subjects [1]; [5]): 1.95 ms | ΔΔHR (healthy subjects [1]; [6]): 2.21 bpm | ΔΔJTp (healthy subjects [1]; [6]): -5.28 ms | ΔΔPDur (healthy subjects [1]; [6]): 3.71 ms | ΔΔPR (healthy subjects [1]; [6]): 6.06 ms | ΔΔQRS (healthy subjects [1]; [6]): 0.54 ms | ΔΔQTcF (healthy subjects [1]; [6]): 2.35 ms | ΔΔTpTe (healthy subjects [1]; [6]): 2.20 ms | ΔΔHR (healthy subjects [1]; [7]): 4.44 bpm | ΔΔJTp (healthy subjects [1]; [7]): -15.09 ms | ΔΔPDur (healthy subjects [1]; [7]): 6.24 ms | ΔΔPR (healthy subjects [1]; [7]): 10.73 ms | ΔΔQRS (healthy subjects [1]; [7]): 3.50 ms | ΔΔQTcF (healthy subjects [1]; [7]): 6.89 ms | ΔΔTpTe (healthy subjects [1]; [7]): 3.37 ms | ΔΔHR (healthy subjects [1]; [8]): 7.70 bpm | ΔΔJTp (healthy subjects [1]; [8]): -24.60 ms | ΔΔPDur (healthy subjects [1]; [8]): 9.93 ms | ΔΔPR (healthy subjects [1]; [8]): 17.53 ms | ΔΔQRS (healthy subjects [1]; [8]): 7.81 ms | ΔΔQTcF (healthy subjects [1]; [8]): 13.50 ms | ΔΔTpTe (healthy subjects [1]; [8]): 5.07 ms | ΔΔHR (healthy subjects [1]; [9]): 12.75 bpm | ΔΔJTp (healthy subjects [1]; [9]): -28.10 ms | ΔΔPDur (healthy subjects [1]; [9]): 15.67 ms | ΔΔPR (healthy subjects [1]; [9]): 28.10 ms | ΔΔQRS (healthy subjects [1]; [9]): 14.50 ms | ΔΔQTcF (healthy subjects [1]; [9]): 23.77 ms | ΔΔTpTe (healthy subjects [1]; [9]): 7.72 ms | onset and loss of pharmacodynamic effect (healthy subjects [1]; about 400 mg to about 800 mg according to the protocol, human subjects): quickly effective and then quickly loses its effect | Slope, ΔΔHR (healthy subjects [1]; [10]): 0.0019 | Slope, ΔΔJTp (healthy subjects [1]; [10]): −0.0000 | Slope, ΔΔPDur (healthy subjects [1]; [10]): 0.0022 | Slope, ΔΔPR (healthy subjects [1]; [10]): 0.0040 | Slope, ΔΔQRS (healthy subjects [1]; [10]): 0.0026 | Slope, ΔΔQTcF (healthy subjects [1]; [10]): 0.0039 | Slope, ΔΔTpTe (healthy subjects [1]; [10]): 0.0010 | changes in ECG parameters (healthy subjects [1]; single ascending iv doses 20-600 mg, healthy subjects): dose-proportional changes in all ECG parameters | in vitro inhibitory effects on INa-Peak (INa-Peak): relatively balanced in vitro inhibitory effects | AUC(0-t) ([2]; intravenous, 350 mg, read-out: AUC (0-24)): 2880 ng·h/mL | AUC(0-t) ([2]; intravenous, 350 mg, read-out: AUC (0-last)): 3370 ng·h/mL | Cmax ([2]; intravenous, 350 mg, read-out: Cmax): 3080 ng/mL | AUC(0-inf) ([2]; intravenous, 350 mg dose): 3720 ng·h/mL | half-life ([2]; intravenous, 350 mg dose): 43 h | Tmax ([2]; intravenous, 350 mg dose, read-out: Tmax): 27 min | Cmax ([2]; iv, 20 mg, 20 mg single iv infusion over 30 min, N=6, as used for ΔΔECG model, read-out: Cmax (Table 2)): 135 ng/mL | AUC(0-t) ([2]; iv, 20 mg, 20 mg single iv infusion over 30 min, healthy subjects, N=6, read-out: AUC (0-24)): 89.7 ng·h/mL | AUC(0-t) ([2]; iv, 20 mg, 20 mg single iv infusion over 30 min, healthy subjects, N=6, read-out: AUC (0-last)): 86.2 ng·h/mL | Cmax ([2]; iv, 20 mg, 20 mg single iv infusion over 30 min, healthy subjects, N=6, read-out: Cmax): 131 ng/mL | Cmax ([2]; iv, 60 mg, 60 mg single iv infusion over 30 min, N=6, as used for ΔΔECG model, read-out: Cmax (Table 2)): 378 ng/mL | AUC(0-t) ([2]; iv, 60 mg, 60 mg single iv infusion over 30 min, healthy subjects, N=6, read-out: AUC (0-24)): 299 ng·h/mL | AUC(0-t) ([2]; iv, 60 mg, 60 mg single iv infusion over 30 min, healthy subjects, N=6, read-out: AUC (0-last)): 306 ng·h/mL | Cmax ([2]; iv, 60 mg, 60 mg single iv infusion over 30 min, healthy subjects, N=6, read-out: Cmax): 369 ng/mL | Cmax ([2]; iv, 180 mg, 180 mg single iv infusion over 30 min, N=6, as used for ΔΔECG model, read-out: Cmax (Table 2)): 1530 ng/mL | AUC(0-t) ([2]; iv, 180 mg, 180 mg single iv infusion over 30 min, healthy subjects, N=6, read-out: AUC (0-24)): 1270 ng·h/mL | AUC(0-t) ([2]; iv, 180 mg, 180 mg single iv infusion over 30 min, healthy subjects, N=6, read-out: AUC (0-last)): 1550 ng·h/mL | Cmax ([2]; iv, 180 mg, 180 mg single iv infusion over 30 min, healthy subjects, N=6, read-out: Cmax): 1430 ng/mL | Cmax ([2]; iv, 360 mg, 360 mg single iv infusion over 30 min, N=5, as used for ΔΔECG model, read-out: Cmax (Table 2)): 3120 ng/mL | AUC(0-t) ([2]; iv, 360 mg, 360 mg single iv infusion over 30 min, healthy subjects, N=5, read-out: AUC (0-24)): 2960 ng·h/mL | AUC(0-t) ([2]; iv, 360 mg, 360 mg single iv infusion over 30 min, healthy subjects, N=5, read-out: AUC (0-last)): 3470 ng·h/mL | Cmax ([2]; iv, 360 mg, 360 mg single iv infusion over 30 min, healthy subjects, N=5, read-out: Cmax): 3170 ng/mL | Cmax ([2]; iv, 600 mg, 600 mg single iv infusion over 30 min, N=12, as used for ΔΔECG model, read-out: Cmax (Table 2)): 5280 ng/mL | AUC(0-t) ([2]; iv, 600 mg, 600 mg single iv infusion over 30 min, healthy subjects, N=12, read-out: AUC (0-24)): 5810 ng·h/mL | AUC(0-t) ([2]; iv, 600 mg, 600 mg single iv infusion over 30 min, healthy subjects, N=12, read-out: AUC (0-last)): 6640 ng·h/mL | Cmax ([2]; iv, 600 mg, 600 mg single iv infusion over 30 min, healthy subjects, N=12, read-out: Cmax): 5580 ng/mL | AUC(0-inf) [2, 11]: 175 ng·h/mL | half-life [2, 11]: 0.62 h | Tmax ([2]; 20 mg single iv infusion over 30 min, healthy subjects, N=6, read-out: Tmax Mean): 25.2 min | AUC(0-inf) [2, 12]: 312 ng·h/mL | half-life [2, 12]: 9.16 h | Tmax ([2]; 60 mg single iv infusion over 30 min, healthy subjects, N=6, read-out: Tmax Mean): 22.8 min | AUC(0-inf) [2, 13]: 2050 ng·h/mL | half-life [2, 13]: 54.8 h | Tmax ([2]; 180 mg single iv infusion over 30 min, healthy subjects, N=6, read-out: Tmax Mean): 27.6 min | AUC(0-inf) [2, 14]: 3830 ng·h/mL | half-life [2, 14]: 43.7 h | Tmax ([2]; 360 mg single iv infusion over 30 min, healthy subjects, N=5, read-out: Tmax Mean): 27 min | AUC(0-inf) [2, 15]: 7580 ng·h/mL | half-life [2, 15]: 41.1 h | Tmax ([2]; 600 mg single iv infusion over 30 min, healthy subjects, N=12, read-out: Tmax Mean): 27.6 min | in vitro inhibitory effects on IKr (IKr): relatively balanced in vitro inhibitory effects | safety, tolerability (healthy subjects [3]): well tolerated with no dose limiting adverse events or arrhythmias observed | in vitro inhibitory effects on INa-Late (INa-Late): relatively balanced in vitro inhibitory effects

COc1ccc(S(=O)(=O)NCc2cc(CN3CCCC3)c(O)c(CN3CCCC3)c2)cc1 [sulcardine, N-[4-hydroxy-3,5-bis(1-pyrrolidinylmethyl)benzyl]-4-methoxybenzenesulfonamide]
expected half-life for oral administration [4]: about 16 hours
